Assay results from ChEMBL document CHEMBL3886965, “Naphthylurea derivatives and medical applications thereof” (2016).

Molecular target: Platelet-derived growth factor receptor beta (Homo sapiens, UniProt P09619)
Assay: The rest of the stock solutions was storaged at ⿿20° C. after subpackage.

Platelet-derived growth factor receptor beta, sequence (P09619 whole entry): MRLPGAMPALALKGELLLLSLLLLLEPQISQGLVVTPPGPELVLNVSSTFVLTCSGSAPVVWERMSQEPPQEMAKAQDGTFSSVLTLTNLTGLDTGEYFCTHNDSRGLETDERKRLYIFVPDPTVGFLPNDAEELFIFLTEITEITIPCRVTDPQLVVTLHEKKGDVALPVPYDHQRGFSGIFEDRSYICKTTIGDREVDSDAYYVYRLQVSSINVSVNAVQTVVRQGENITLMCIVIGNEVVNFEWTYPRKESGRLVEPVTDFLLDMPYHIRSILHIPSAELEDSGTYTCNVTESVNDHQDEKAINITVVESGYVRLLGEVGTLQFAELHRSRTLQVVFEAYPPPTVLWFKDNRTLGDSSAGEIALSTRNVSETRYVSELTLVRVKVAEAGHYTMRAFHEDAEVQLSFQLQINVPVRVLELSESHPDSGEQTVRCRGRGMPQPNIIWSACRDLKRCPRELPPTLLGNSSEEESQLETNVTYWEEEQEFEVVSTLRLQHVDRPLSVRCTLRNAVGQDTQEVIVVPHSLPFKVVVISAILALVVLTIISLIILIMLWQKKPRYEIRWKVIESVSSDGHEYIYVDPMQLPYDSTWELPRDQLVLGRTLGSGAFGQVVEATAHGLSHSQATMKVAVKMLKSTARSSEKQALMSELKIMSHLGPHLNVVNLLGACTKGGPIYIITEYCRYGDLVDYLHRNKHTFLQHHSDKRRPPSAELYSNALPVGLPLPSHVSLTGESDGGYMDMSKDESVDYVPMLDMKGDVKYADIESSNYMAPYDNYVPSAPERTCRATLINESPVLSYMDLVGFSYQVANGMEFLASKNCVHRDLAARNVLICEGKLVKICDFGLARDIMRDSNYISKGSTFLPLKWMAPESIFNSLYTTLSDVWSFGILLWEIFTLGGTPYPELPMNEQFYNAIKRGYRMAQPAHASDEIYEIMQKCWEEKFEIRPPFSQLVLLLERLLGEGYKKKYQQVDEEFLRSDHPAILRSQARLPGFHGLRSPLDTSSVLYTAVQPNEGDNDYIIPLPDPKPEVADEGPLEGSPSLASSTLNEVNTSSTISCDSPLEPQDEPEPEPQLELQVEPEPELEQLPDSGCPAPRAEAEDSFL

| SMILES | IC50 [µM] |
| --- | --- |
| Cc1ccc(F)c(NC(=O)Nc2ccc(-c3ccc(OCCCN4CCCC4)c4[nH]nc(N)c34)c3ccccc23)c1 | 0.0163 |
| Cc1cccc(NC(=O)Nc2ccc(-c3ccc(OCCCN4CCCC4)c4[nH]nc(N)c34)c3ccccc23)c1 | 0.0454 |
| Cc1ccc(F)c(NC(=O)Nc2ccc(-c3ccc(OCCC(C)(C)N)c4[nH]nc(N)c34)c3ccccc23)c1 | 0.106 |
| Cc1cccc(NC(=O)Nc2ccc(-c3cncc4[nH]nc(N)c34)c3ccccc23)c1 | 0.0067 |
| Cc1ccc(F)c(NC(=O)Nc2ccc(-c3cncc4[nH]nc(N)c34)c3ccccc23)c1 | 0.0254 |
| Cc1cccc(NC(=O)Nc2ccc(-c3ccc(OCCC(C)(C)N)c4[nH]nc(N)c34)c3ccccc23)c1 | 0.155 |
